A short description of data set [1]: acute toxicity (LD50), procedure of Lichtfield and Wilcoxon. Particulars: mouse, in vivo, po, mice. On the procedure:
(§1) An aspect of the anti-inflammatory utility was evidenced by means of the carrageenin-induced edema test in rats, which was performed according to the methodology described by C. A. Winter et al., Proc. Soc. Exptl. Biol. Med., 111, 544, 1962. […] It is also to be noted that the toxicities of the aminopyrrole derivatives which are the object of the present invention are very low; with few exceptions, their LD50 values are always higher than 1000 mg/kg p.o. in mice. Toxicities were determined according to the procedure described by Lichtfield and Wilcoxon, J. Pharm. Exp. Therm., 96, 99, 1949.

Data set [2] concerns carrageenin-induced edema. As to the kind of experiment: carrageenin-induced edema test in rats (anti-inflammatory). The format is in vivo. Particulars: Rattus norvegicus, po, read-out: % Decrease of the induced edema; for inhibition in vivo at 20 mg/kg: 20 mg/kg p.o.; for inhibition in vivo at 50 mg/kg: 50 mg/kg p.o.; for inhibition in vivo at 100 mg/kg: 100 mg/kg p.o.; for inhibition in vivo at 200 mg/kg: 200 mg/kg p.o.; for inhibition in vivo at 5 mg/kg: 5 mg/kg p.o.; for inhibition in vivo at 10 mg/kg: 10 mg/kg p.o. On the procedure:
as §1
The following Table summarizes the aforementioned anti-inflammatory action and LD50 values.

Data set [3] is described as follows: CNS-depressant utility, general method of S. Irwin. Particulars: in vivo. From the text:
This characteristic was investigated according to the general method proposed by S. Irwin, Psychopharmacologia (Berl.), 13, 222, 1968. […] This is undoubtedly another vary favorable characteristic of the inventive compounds, as a certain sedative and myorelaxing effect is useful in patients affected by severe inflammatory disease.

Structures are written as SMILES.

As a reminder, the LD50 is the dose at which mortality reaches 50%. Low values mean greater toxicity, high ones lower toxicity. Consider `CC(=O)c1c(C)[nH]c(-c2ccccc2)c1N=Cc1ccccc1` [Example 46, 4-Acetyl-3-benzylideneamino-5-methyl-2-phenylpyrrole], for which, in data set [1], the LD50 is more than 1000 mg/kg. Moreover, in data set [2], the inhibition in vivo at 20 mg/kg is 23.9%, the inhibition in vivo at 50 mg/kg came out at 35.2%, the inhibition in vivo at 100 mg/kg is 47.9% and the inhibition in vivo at 200 mg/kg turned out to be 69%.

`CC(=O)c1c(C)[nH]c(-c2ccccc2)c1N.Cl` [Example 1, 4-Acetyl-3-amino-5-methyl-2-phenylpyrrole hydrochloride] came in with an LD50 in data set [1] of more than 1000 mg/kg. Moreover, in data set [2], the inhibition in vivo at 5 mg/kg was determined as 23.4%, the inhibition in vivo at 10 mg/kg amounted to 32.5%, the inhibition in vivo at 20 mg/kg was 39% and the inhibition in vivo at 50 mg/kg was determined as 43.8%. Moreover, in data set [2], the inhibition in vivo at 100 mg/kg was determined as 58.9% and the inhibition in vivo at 200 mg/kg was determined as 76.6%. The “sedative and myorelaxing activity” value in data set [3] was “good degree of sedative and myorelaxing activity”.

In turn, `COC(=O)c1c(C(N)=O)[nH]c(-c2ccccc2)c1N` [Example 55, 3-Amino-5-carbamoyl-4-carbomethoxy-2-phenyl-pyrrole] came in with an LD50 in data set [1] of 1000 mg/kg. For the same compound, in data set [2], the inhibition in vivo at 50 mg/kg was determined as 27.1%, the inhibition in vivo at 100 mg/kg came out at 41.4% and the inhibition in vivo at 200 mg/kg came to 56.3%.

On to `CC(=O)c1c(N=Cc2ccccc2)c(-c2ccccc2)n(C)c1C` [Example 49a, 4-acetyl-3-benzylideneamino-1,5-dimethyl-2-phenylpyrrole], for which, in data set [1], the LD50 was more than 1000 mg/kg. In data set [2], the inhibition in vivo at 100 mg/kg amounted to 31% and the inhibition in vivo at 200 mg/kg came out at 53.1%.

For the compound `CC(=O)c1c(C)[nH]c(-c2ccc(Cl)cc2)c1N` [Example 26, 4-Acetyl-3-amino-2-(p-chlorophenyl)-5-methylpyrrole], the LD50 in data set [1] is more than 1000 mg/kg. Further, in data set [2], the inhibition in vivo at 20 mg/kg amounted to 29.2%, the inhibition in vivo at 50 mg/kg is 43.1%, the inhibition in vivo at 100 mg/kg was 58.5% and the inhibition in vivo at 200 mg/kg amounted to 71%.

Regarding `Cc1[nH]c(-c2ccccc2)c(N)c1C(=O)C(C)C` [Example 20, 3-Amino-4-isobutyryl-5-methyl-2-phenylpyrrole], in data set [1], the LD50 was more than 1000 mg/kg. Moreover, in data set [2], the inhibition in vivo at 50 mg/kg was determined as 24.2%, the inhibition in vivo at 100 mg/kg was 37.3% and the inhibition in vivo at 200 mg/kg is 44.9%.

For the compound `CCOC(=O)c1c(C)[nH]c(-c2ccc(C)cc2)c1N.Cl` [Example 15, 3-Amino-4-carbethoxy-5-methyl-2-(p-tolyl)-pyrrole hydrochloride], the LD50 in data set [1] is more than 1000 mg/kg. In data set [2], the inhibition in vivo at 50 mg/kg stood at 29.6%, the inhibition in vivo at 100 mg/kg worked out at 40.8% and the inhibition in vivo at 200 mg/kg was 58.3%. Also, the “sedative and myorelaxing activity” value in data set [3] is “good degree of sedative and myorelaxing activity”.

`CC(=O)c1c(C)[nH]c(-c2ccccc2C)c1N` [Example 29, 4-Acetyl-3-amino-2-(o-tolyl)-5-methylpyrrole] registered an LD50 in data set [1] of more than 1000 mg/kg. Also, in data set [2], the inhibition in vivo at 50 mg/kg stood at 26.4%, the inhibition in vivo at 100 mg/kg was 33.8% and the inhibition in vivo at 200 mg/kg was 42.6%.

The compound `COc1ccc(-c2[nH]c(C)c(C(C)=O)c2N)cc1` [Example 14, 4-Acetyl-3-amino-2-(p-methoxyphenyl)-5-methylpyrrole] came in with an LD50 in data set [1] of more than 1000 mg/kg. In data set [2], the inhibition in vivo at 5 mg/kg was 23%, the inhibition in vivo at 10 mg/kg is 31.1%, the inhibition in vivo at 20 mg/kg was found to be 35.1% and the inhibition in vivo at 50 mg/kg is 41.9%. Besides, in data set [2], the inhibition in vivo at 100 mg/kg came out at 55.4% and the inhibition in vivo at 200 mg/kg turned out to be 67.6%.

For the compound `CCOC(=O)c1c[nH]c(-c2ccccc2)c1N.Cl` [Example 6, 3-Amino-4-carbethoxy-2-phenylpyrrole hydrochloride], in data set [1], the LD50 was more than 1000 mg/kg. In data set [2], the inhibition in vivo at 100 mg/kg is 25.7% and the inhibition in vivo at 200 mg/kg amounted to 35%.

`CCC(=O)c1c(C)[nH]c(-c2ccccc2)c1N` [Example 21, 3-Amino-5-methyl-2-phenyl-4-propionylpyrrole] returned an LD50 in data set [1] of 500 mg/kg. Also, in data set [2], the inhibition in vivo at 20 mg/kg turned out to be 25.3%, the inhibition in vivo at 50 mg/kg amounted to 36% and the inhibition in vivo at 100 mg/kg was determined as 43%.

As to `CC(=O)c1c(C)[nH]c(-c2ccc(F)cc2)c1N` [Example 17, 4-Acetyl-3-amino-2-(p-fluorophenyl)-5-methylpyrrole], the LD50 in data set [1] was more than 1000 mg/kg. Moreover, in data set [2], the inhibition in vivo at 100 mg/kg worked out at 35.4% and the inhibition in vivo at 200 mg/kg amounted to 47.9%.

In turn, `CC(=O)c1c(C)[nH]c(-c2ccccc2)c1N(C)C` [Example 43, 4-Acetyl-3-dimethylamino-5-methyl-2-phenylpyrrole] had an LD50 in data set [1] of more than 1000 mg/kg. Also, in data set [2], the inhibition in vivo at 100 mg/kg was found to be 25.3% and the inhibition in vivo at 200 mg/kg stood at 45.6%.

In data set [1], `CCCC(=O)c1c(C)[nH]c(-c2ccccc2)c1N.Cl` [Example 35, 3-Amino-4-butyryl-5-methyl-2-phenylpyrrole hydrochloride] returned a 50% lethal dose (LD50) of 500 mg/kg. Moreover, in data set [2], the inhibition in vivo at 50 mg/kg stood at 32.4% and the inhibition in vivo at 100 mg/kg is 42%.

Regarding `CCOC(=O)c1c(N)c[nH]c1C.Cl` [Example 19, 3-Amino-4-carbethoxy-5-methylpyrrole hydrochloride], the LD50 in data set [1] amounted to 500 mg/kg. For the same compound, in data set [2], the inhibition in vivo at 50 mg/kg was determined as 24.3% and the inhibition in vivo at 100 mg/kg is 45.9%.

`CCOC(=O)c1c(C)[nH]c(-c2ccccc2)c1N.Cl` [Example 2, 3-Amino-4-carbethoxy-5-methyl-2-phenylpyrrole hydrochloride] came in with an LD50 in data set [1] of more than 1000 mg/kg. Moreover, in data set [2], the inhibition in vivo at 100 mg/kg was found to be 36.5% and the inhibition in vivo at 200 mg/kg was 44.3%.

`CC(=O)c1c(C)[nH]c(-c2ccc(C)cc2)c1N` [Example 13, 4-Acetyl-3-amino-5-methyl-2-(p-tolyl)-pyrrole] displayed an LD50 in data set [1] of more than 1000 mg/kg. Besides, in data set [2], the inhibition in vivo at 5 mg/kg came to 23.2%, the inhibition in vivo at 10 mg/kg came out at 31.9%, the inhibition in vivo at 20 mg/kg is 43.5% and the inhibition in vivo at 50 mg/kg amounted to 50.7%. For the same compound, in data set [2], the inhibition in vivo at 100 mg/kg came to 69.6% and the inhibition in vivo at 200 mg/kg was 75.4%.

`CC(=O)c1c(N)c(-c2ccccc2)n(C)c1C` [Example 49b, 4-Acetyl-3-amino-1,5-dimethyl-2-phenyl-pyrrole] returned an LD50 in data set [1] of more than 1000 mg/kg. In data set [2], the inhibition in vivo at 50 mg/kg is 11%, the inhibition in vivo at 100 mg/kg amounted to 34.3% and the inhibition in vivo at 200 mg/kg is 52.7%.

`CC(=O)c1c(N(C)C)c(-c2ccccc2)n(Cc2ccccc2Cl)c1C` [Example 53, 4-Acetyl-1-(o-chlorobenzyl)-5-methyl-3-dimethylamino-2-phenylpyrrole] had an LD50 in data set [1] of more than 1000 mg/kg. In data set [2], the inhibition in vivo at 100 mg/kg came out at 30% and the inhibition in vivo at 200 mg/kg amounted to 37.1%.

In data set [1], `Cc1[nH]c(-c2ccccc2)c(N)c1C(=O)c1ccccc1` [Example 3, 3-Amino-4-benzoyl-5-methyl-2-phenylpyrrole] yielded an LD50 of more than 1000 mg/kg. In data set [2], the inhibition in vivo at 100 mg/kg came to 40.6% and the inhibition in vivo at 200 mg/kg was found to be 53.9%.

The compound `CC(=O)c1c(N(C)C)c(-c2ccccc2)n(Cc2ccc(Cl)cc2)c1C` [Example 54, 4-Acetyl-1-(p-chlorobenzyl)-5-methyl-3-dimethylamino-2-phenylpyrrole] returned an LD50 in data set [1] of more than 1000 mg/kg. In addition, in data set [2], the inhibition in vivo at 100 mg/kg is 38% and the inhibition in vivo at 200 mg/kg was determined as 47.6%.

Take `CCCC(=O)c1c(CCC)[nH]c(-c2ccccc2)c1N.Cl` [Example 34, 3-Amino-4-butyryl-2-phenyl-5-propylpyrrole hydrochloride]: the LD50 in data set [1] was approximately 1000 mg/kg. In data set [2], the inhibition in vivo at 50 mg/kg turned out to be 39.1%, the inhibition in vivo at 100 mg/kg came to 50% and the inhibition in vivo at 200 mg/kg turned out to be 61.3%.

The compound `CC(=O)c1c(C)[nH]c(-c2ccccc2)c1N=Cc1ccc(Cl)cc1` [Example 45, 4-Acetyl-3-(p-chlorobenzylideneamino)-5-methyl-2-phenylpyrrole] displayed an LD50 in data set [1] of more than 1000 mg/kg. Besides, in data set [2], the inhibition in vivo at 50 mg/kg was found to be 23.9%, the inhibition in vivo at 100 mg/kg was 47.9% and the inhibition in vivo at 200 mg/kg worked out at 68.2%.

Turning to `COc1ccc(C(=O)c2c(C)[nH]c(-c3ccccc3)c2N)cc1` [Example 24, 3-Amino-4-(p-methoxybenzoyl)-5-methyl-2-phenylpyrrole], the LD50 in data set [1] came to 500 mg/kg. For the same compound, in data set [2], the inhibition in vivo at 20 mg/kg stood at 20.6%, the inhibition in vivo at 50 mg/kg came to 32.3% and the inhibition in vivo at 100 mg/kg came to 42.2%.

Compound `CNC(=O)c1c(C)[nH]c(-c2ccccc2)c1N.Cl` [Example 31, 3-Amino-5-methyl-4-methylcarbamoyl-2-phenylpyrrole hydrochloride] came in with an LD50 in data set [1] of approximately 1000 mg/kg. Moreover, in data set [2], the inhibition in vivo at 50 mg/kg stood at 26.1%, the inhibition in vivo at 100 mg/kg worked out at 34.8% and the inhibition in vivo at 200 mg/kg came to 42%.

Source of the values: US4198502A, “Aminopyrrole derivatives” (Gruppo Lepetit S.p.A., priority 1973, dated 1980).
